Measurements reported in patent US4477456A (priority 1982, dated 1984).

Tests used:
[1] = test system: characteristic stretching or writhing syndrome induced by phenylquinone; assay: animal or person; format: in vivo, female white mice; conditions: for ED50: Mus musculus, po, 0.5 h, read-out: Effect ED50, Oral PQW
[2] = test system: Straub tail induced by morphine; assay: narcotic antagonist test: prevention of Straub tail induced by morphine sulfate; format: in vivo, Female CF1 S mice; conditions: for ED50: Mus musculus, sc, subcutaneous, challenge 30 mg/kg morphine sulfate i.p., read-out: Effect ED50, Subcutaneous Anti-Straub Tail
[3] = test system: anorexigenic effect (milk spots consumed); assay: animal or person; format: in vivo, Female CF1 mice; conditions: Mus musculus, po, read-out: Anorexigenic Effect, Effective Dose
[4] = test system: Straub tail induced by morphine; conditions: known narcotic antagonists, Blumberg et al.; cited from earlier work

Row | Compound | ED50 [1] | ED50 [2] | minimal effective dose [3] | prevention of the induction of Straub tail by morphine [4] | narcotic antagonism capability / antagonist character ([2]; Straub tail antagonism, in words) | analgesic potency compared with morphine ([1]; mouse, in vivo)
1 | CC(O)C1CC2C=CC13CN(CC1CC1)CCC31c3cccc(O)c3OC21 (stereo not shown) [Example 8, 3-Cyclopropylmethyl-5-(1-hydroxyethyl)-1,2,3,4,5,6,7,7a-octahydro-4a,7-ethenobenzofuro[3,2-e]isoquinolin-9-ol] | 0.51 mg/kg | 0.024 mg/kg | – | – | – | –
2 | CC(C)(C)C(C)(O)C1CC2CCC13CN(CC1CC1)CCC31c3cccc(O)c3OC21 (single isomer, unassigned) [Example 11, 3-Cyclopropylmethyl-5-(2-hydroxy-3,3-dimethyl-2-butyl)-1,2,3,4,5,6,7,7a-octahydro-4a,7-ethanobenzofuro[3,2-e]isoquinolin-9-ol] | 5.2 mg/kg | – | – | – | – | –
3 | CC(O)C1CC2CCC13CN(CC1CC1)CCC31c3cccc(O)c3OC21 (stereo not shown) [Example 7, 3-Cyclopropylmethyl-5-(1-hydroxyethyl)-1,2,3,4,5,6,7,7a-octahydro-4a,7-ethanobenzofuro[3,2-e]isoquinolin-9-ol] | 0.78 mg/kg | 0.08 mg/kg | – | – | – | –
4 | Oc1cccc2c1OC1C3CCC4(CC3)CN(CC3CC3)CCC214 (stereo not shown) [Example 6, 3-Cyclopropylmethyl-1,2,3,4,5,6,7,7a-octahydro-4a,7-ethanobenzofuro[3,2-e]isoquinolin-9-ol] | 4.4 mg/kg | 0.005 mg/kg | 46 mg/kg | – | – | –
5 | CC(C)=CCN1CCC2(C)c3cc(O)ccc3CC1C2C (stereo not shown) [Pentazocine, reference compound] | 56 mg/kg | 4 mg/kg | – | – | – | –
6 | CN1CC[C@]23c4c5ccc(O)c4O[C@H]2[C@@H](O)C=C[C@H]3[C@H]1C5 [Morphine, reference compound] | 3 mg/kg | – | – | – | – | –
7 | C=CCN1CC[C@]23c4c5ccc(O)c4O[C@H]2[C@@H](O)C=C[C@H]3[C@H]1C5 [Nalorphine] | – | – | – | prevent the induction of Straub tail in mice | – | –
8 | CCCN1CCC23c4cccc(O)c4OC2C2CCC3(CC2)C1.Cl (stereo not shown) [Example 4, 3-propyl-1,2,3,4,5,6,7,7a-octahydro-4a,7-ethanobenzofuro[3,2-e]isoquinolin-9-ol hydrochloride] | 99 mg/kg | 0.009 mg/kg | 7 mg/kg | – | pure narcotic antagonists | –
9 | OCC1CC2CCC13CN(CC1CC1)CCC31c3cccc(O)c3OC21 (single isomer, unassigned) [Example 9, 3-cyclopropylmethyl-5-hydroxymethyl-1,2,3,4,5,6,7,7a-octahydro-4a,7-ethanobenzofuro[3,2-e]isoquinolin-9-ol] | 0.28 mg/kg | – | – | – | – | several times greater potency than morphine
10 | C=CCN1CC[C@]23c4c5ccc(O)c4O[C@H]2C(=O)CC[C@@]3(O)[C@H]1C5 [Naloxone, reference compound] | – | – | 4.8 mg/kg | prevent the induction of Straub tail in mice | – | –
11 | COc1cccc2c1OC1C3CCC4(CC3)CN(C)CCC214 (stereo not shown) [Example 1, 9-methoxy-3-methyl-1,2,3,4,5,6,7,7a-octahydro-4a,7-ethanobenzofuro[3,2-e]isoquinoline] | 20.5 mg/kg | > 18 mg/kg | 20 mg/kg | – | – | –
12 | CN1CCC23c4cccc(O)c4OC2C2CCC3(CC2)C1 (stereo not shown) [Example 2, 3-methyl-1,2,3,4,5,6,7,7a-octahydro-4a,7-ethanobenzofuro[3,2-e]isoquinolin-9-ol] | 12 mg/kg | 0.05 mg/kg | > 324 mg/kg | – | – | –
13 | CCCN1CCC23c4cccc(OC)c4OC2C2CCC3(CC2)C1 (stereo not shown) [Example 3, 9-Methoxy-3-propyl-1,2,3,4,5,6,7,7a-octahydro-4a,7-ethanobenzofuro[3,2-e]isoquinoline] | > 135 mg/kg | 0.19 mg/kg | – | – | – | –
